Measured values reported in ChEMBL document CHEMBL1137150, “Factor Xa inhibitors based on a 2-carboxyindole scaffold: SAR of neutral P1 substituents” (Bioorg Med Chem Lett, 2004).

Columns and labels:
Serine protease 1 = Serine protease 1 (Homo sapiens, UniProt P07477); experiment: […]
Prothrombin [1] = molecular target: T1, Prothrombin (Homo sapiens, UniProt P00734); experiment: Concentration required for 50% inhibition of dilute prothrombin time; format: functional
Prothrombin [2] = molecular target: T1, Prothrombin; experiment: Inhibitory activity against coagulation factor II (thrombin)
[3] = Percent compound remaining after 2 hr incubation with human S9 liver fraction; format: ADME, subcellular; conditions: read-out: Activity
[4] = molecular target: Tissue-type plasminogen activator (Homo sapiens, UniProt P00750); experiment: inhibitory activity against human tissue plasminogen activator
Sequence of Tissue-type plasminogen activator (P00750 whole entry): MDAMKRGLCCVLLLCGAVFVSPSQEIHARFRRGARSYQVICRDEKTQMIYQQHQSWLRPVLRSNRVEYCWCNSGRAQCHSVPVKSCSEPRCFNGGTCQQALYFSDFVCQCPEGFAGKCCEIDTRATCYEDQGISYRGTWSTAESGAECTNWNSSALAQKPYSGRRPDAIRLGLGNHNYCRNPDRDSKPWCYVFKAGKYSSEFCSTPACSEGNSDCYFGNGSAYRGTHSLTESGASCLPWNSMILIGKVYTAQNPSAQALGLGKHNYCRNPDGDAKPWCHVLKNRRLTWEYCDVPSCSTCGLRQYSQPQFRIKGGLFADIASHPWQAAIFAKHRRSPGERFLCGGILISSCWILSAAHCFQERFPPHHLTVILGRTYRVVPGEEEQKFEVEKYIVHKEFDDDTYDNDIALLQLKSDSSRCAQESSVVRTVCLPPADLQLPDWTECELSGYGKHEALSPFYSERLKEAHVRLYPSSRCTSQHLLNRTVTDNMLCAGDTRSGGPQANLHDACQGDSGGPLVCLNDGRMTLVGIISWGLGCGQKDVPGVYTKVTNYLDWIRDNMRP

Prothrombin [5] = molecular target: T1, Prothrombin; experiment: Concentration required to double plasma clotting time of prothrombin time; format: functional, cell-free
Coagulation factor X = Coagulation factor X (Homo sapiens, UniProt P00742); experiment: Inhibitory activity against coagulation factor Xa
Sequence of Coagulation factor X (P00742 41-179 limits assumed): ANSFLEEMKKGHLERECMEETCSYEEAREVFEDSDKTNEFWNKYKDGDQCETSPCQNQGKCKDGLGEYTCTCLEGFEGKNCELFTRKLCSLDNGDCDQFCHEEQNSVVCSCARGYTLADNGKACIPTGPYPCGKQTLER
Sequence of Coagulation factor X (P00742 235-488 limits assumed): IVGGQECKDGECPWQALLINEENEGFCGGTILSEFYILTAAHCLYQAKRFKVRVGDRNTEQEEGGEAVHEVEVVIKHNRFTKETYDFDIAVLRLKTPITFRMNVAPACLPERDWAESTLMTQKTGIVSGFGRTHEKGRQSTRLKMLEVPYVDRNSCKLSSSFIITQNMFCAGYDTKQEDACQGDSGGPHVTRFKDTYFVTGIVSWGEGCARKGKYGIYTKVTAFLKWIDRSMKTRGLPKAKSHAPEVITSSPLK

Sequence of Serine protease 1 (P07477 whole entry): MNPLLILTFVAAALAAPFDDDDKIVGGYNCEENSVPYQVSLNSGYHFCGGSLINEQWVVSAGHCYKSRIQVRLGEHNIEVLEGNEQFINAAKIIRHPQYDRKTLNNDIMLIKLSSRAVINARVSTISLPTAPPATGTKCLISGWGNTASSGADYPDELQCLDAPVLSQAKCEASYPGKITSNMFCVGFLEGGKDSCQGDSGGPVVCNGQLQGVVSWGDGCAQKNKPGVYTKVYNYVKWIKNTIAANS

| SMILES | Ki (Serine protease 1) | IC50 (Prothrombin [1]) | Ki (Prothrombin [2]) | remaining at 2 h [3] | Ki [4] | Ki (Coagulation factor X) | other results |
| --- | --- | --- | --- | --- | --- | --- | --- |
| CC(C)N1CCC(NC(=O)c2cc3ccccc3n2Cc2cc3ccc(Cl)cc3s2)CC1 | > 100 µM | 0.89 µM | 9.04 µM | 98% | > 100 µM | – | Concentration (Prothrombin [5]): 14.1 µM |
| CC(C)N1CCC(NC(=O)c2cc3ccccc3n2CC(=O)Nc2cccc(Cl)c2)CC1 | – | – | – | – | – | 0.287 µM | – |
| CC(C)N1CCC(NC(=O)c2cc3ccccc3n2-c2cccc(Cl)c2)CC1 | – | – | – | – | – | 9.01 µM | – |
| CC(C)N1CCC(NC(=O)c2cc3ccccc3n2Cc2ccc(Cl)cc2)CC1 | – | – | – | – | – | 2.5 µM | – |
| CC(C)N1CCC(NC(=O)c2cc3ccccc3n2Cc2cnc(-c3ccc(Cl)cc3)s2)CC1 | – | – | – | – | – | 2.73 µM | – |
| CC(C)N1CCC(NC(=O)c2cc3ccccc3n2CC(=O)Nc2ccc(Cl)cn2)CC1 | > 100 µM | 0.02 µM | > 10 µM | 95% | > 100 µM | – | – |
| CC(C)N1CCC(NC(=O)c2cc3ccccc3n2CC(=O)Nc2ccc(Cl)cc2)CC1 | > 100 µM | 0.02 µM | > 10 µM | 67% | > 100 µM | – | – |
| CC(C)N1CCC(NC(=O)c2cc3ccccc3n2Cc2cc(-c3ccc(Cl)s3)on2)CC1 | > 100 µM | – | – | 94% | – | – | – |
| COc1cccc(CCn2c(C(=O)NC3CCN(C(C)C)CC3)cc3ccccc32)c1 | – | – | – | – | – | > 10 µM | – |
| COc1cccc(-n2c(C(=O)NC3CCN(C(C)C)CC3)cc3ccccc32)c1 | – | – | – | – | – | 2.48 µM | – |
